Patent EP2151441A1, “Beta-carbolin-derivates as substrates for an enzyme” (Julius-Maximilians-Universität Würzburg, priority 2008, dated 2010)
Read-outs that look alike come from different tables or passages of the source.

Legend:
CYP3A4 [1] = biological target: T1, CYP3A4 (Homo sapiens, UniProt P08684); details: cited from earlier work; for Km: according to US 6,207,404 (BFC, BzRes) or Walsky and Obach 2004 (Midazolam)
recombinant human CPY3A4 = biological target: T2, recombinant human CPY3A4 (Homo sapiens, UniProt P08684); test: Catalytic activity of CYP3A4 for the reaction with substance 1a; format: biochemical
T2 construct: purchased BD Biosciences (Supersomes)
Method: After incubation for 20 minutes at 37°C the metabolite 1b was quantified using liquid chromatography followed by mass spectrometry. For this reaction 4.5 pmol/min/pmol CYP3A4 could be determined as activity of the enzyme. According to US 6,207,404 the activity of CYP3A4 for the reaction of BFC at a concentration of 50 µM is about 1.5 pmol/min/pmol CYP3A4. […] For the determination of the catalytic activity of other CYP-enzymes with respect to the reaction of substance 1a 2 µM of substance 1a were contacted with 15 pmol/ml CYP enzyme (Supersomes®, BD Biosciences) and 2 mM NADPH in 100 mM potassium phosphate puffer (pH 7.4; 3 mM MgCl2) with the exception of CYP3A4 that was used at a concentration of 5 pmol/ml.

CYP1B1 = biological target: T3, CYP1B1 (Homo sapiens, UniProt Q16678); test: Catalytic activity of other CYP enzymes for the reaction of substance 1a; format: biochemical; details: 2 µM substance 1a, 15 pmol/ml CYP enzyme, Fig. 2
T3 construct: purchased BD Biosciences (Supersomes)
T3 sequence (Q16678 1-543): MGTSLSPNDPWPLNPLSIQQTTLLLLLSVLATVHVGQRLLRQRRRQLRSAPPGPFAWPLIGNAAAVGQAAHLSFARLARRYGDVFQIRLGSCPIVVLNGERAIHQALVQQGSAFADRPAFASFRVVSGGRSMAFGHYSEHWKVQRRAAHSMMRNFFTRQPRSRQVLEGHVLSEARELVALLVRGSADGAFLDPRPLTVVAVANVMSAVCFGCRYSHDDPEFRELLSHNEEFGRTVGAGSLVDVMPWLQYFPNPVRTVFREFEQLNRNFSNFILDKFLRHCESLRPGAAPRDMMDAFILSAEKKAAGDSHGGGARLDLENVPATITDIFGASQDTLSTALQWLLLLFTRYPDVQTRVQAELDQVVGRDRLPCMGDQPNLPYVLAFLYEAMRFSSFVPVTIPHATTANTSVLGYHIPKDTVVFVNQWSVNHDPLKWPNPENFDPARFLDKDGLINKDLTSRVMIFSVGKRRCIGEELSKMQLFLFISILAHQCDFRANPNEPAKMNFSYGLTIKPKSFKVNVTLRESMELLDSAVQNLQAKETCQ
Method: (§1) For the determination of the catalytic activity of other CYP-enzymes with respect to the reaction of substance 1a 2 µM of substance 1a were contacted with 15 pmol/ml CYP enzyme (Supersomes®, BD Biosciences) and 2 mM NADPH in 100 mM potassium phosphate puffer (pH 7.4; 3 mM MgCl2) with the exception of CYP3A4 that was used at a concentration of 5 pmol/ml.

CYP2D6 = biological target: T4, CYP2D6 (Homo sapiens, UniProt P10635); test: as above; format: biochemical; details: 2 µM substance 1a, 15 pmol/ml CYP enzyme, Fig. 2
T4 construct: purchased BD Biosciences (Supersomes)
Method: as §1

CYP3A4 [2] = biological target: T1, CYP3A4; test: Determination of Km and Vmax of the CYP3A4-catalyzed O-dealkylation reaction (LC-MS quantification of reaction product 1b); format: biochemical; design: purchased BD Biosciences (Supersomes); details: Vmax comparison with BFC
Method: The Michaelis-Menten constant (Km) and the maximal reaction velocity (Vmax) are important parameters for inhibition assays. To determine the inhibitory activity of test compounds the substrate concentration in the assay should be about the Km value. […] After incubation for 20 minutes at 37°C the reaction product 1b was quantified using mass spectrometry after liquid chromatography. […] For the calculation of Km and Vmax the Sigma Plot 10.0 software with enzyme kinetic module (SPSS, Inc., Chicago, IL, USA) was used.

[3] = according to US 6,207,404 (BzRes) or Walsky and Obach 2004 (Midazolam)

T1 sequence (P08684 whole entry): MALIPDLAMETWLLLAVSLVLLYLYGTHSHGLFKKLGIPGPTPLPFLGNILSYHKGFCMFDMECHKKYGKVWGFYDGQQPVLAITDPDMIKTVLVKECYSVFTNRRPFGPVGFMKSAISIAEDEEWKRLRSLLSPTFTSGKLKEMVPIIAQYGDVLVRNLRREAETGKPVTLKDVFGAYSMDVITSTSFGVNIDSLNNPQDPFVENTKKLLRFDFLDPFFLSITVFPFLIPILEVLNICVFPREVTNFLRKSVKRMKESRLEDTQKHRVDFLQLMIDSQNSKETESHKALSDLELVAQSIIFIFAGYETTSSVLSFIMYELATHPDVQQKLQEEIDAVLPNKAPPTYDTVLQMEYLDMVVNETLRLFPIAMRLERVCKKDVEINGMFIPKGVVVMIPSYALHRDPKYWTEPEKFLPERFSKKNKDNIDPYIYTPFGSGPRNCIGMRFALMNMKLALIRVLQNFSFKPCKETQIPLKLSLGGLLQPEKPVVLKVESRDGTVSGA
T2 sequence (P08684 whole entry): as above
T4 sequence (P10635 whole entry): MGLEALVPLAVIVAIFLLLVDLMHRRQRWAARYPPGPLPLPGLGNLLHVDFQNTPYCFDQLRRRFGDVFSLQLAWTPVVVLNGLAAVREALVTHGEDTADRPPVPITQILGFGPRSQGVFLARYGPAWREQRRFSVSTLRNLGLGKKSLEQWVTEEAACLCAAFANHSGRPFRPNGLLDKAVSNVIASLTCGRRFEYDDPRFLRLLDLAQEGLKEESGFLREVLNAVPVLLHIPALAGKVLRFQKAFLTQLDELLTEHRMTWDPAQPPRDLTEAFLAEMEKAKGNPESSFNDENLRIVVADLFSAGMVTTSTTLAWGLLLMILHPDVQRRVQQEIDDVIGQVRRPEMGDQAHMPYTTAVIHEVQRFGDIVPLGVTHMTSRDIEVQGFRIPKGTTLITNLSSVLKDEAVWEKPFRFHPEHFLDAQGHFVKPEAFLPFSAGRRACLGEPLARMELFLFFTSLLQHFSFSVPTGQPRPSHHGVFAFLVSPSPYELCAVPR

O=c1ccc2nc3ccc(OCc4ccccc4)cc3oc-2c1 [BzRes, benzyloxyresorufin]
Km (CYP3A4 [1]): 38 µM | Vmax (CYP3A4 [1]; [3]): 0.3 pmol/min/pmol CYP3A4

Cc1c2[nH]c3cc(OCc4ccccc4)ccc3c2cc[n+]1Cc1ccccc1.O=C([O-])C(F)(F)F [Substance 1a, 2-benzyl-7-benzyloxy-1-methyl-9H-pyrido[3,4-b]indol-2-ium trifluoroacetate salt]
activity of the enzyme relative to the reaction of BFC (recombinant human CPY3A4; 2 µM 1a versus 50 µM BFC): 3 fold | activity of the enzyme (recombinant human CPY3A4; 2 µM substance 1a, 5 pmol/ml CYP3A4, 2 mM NADPH, 20 minutes at 37°C): 4.5 pmol/min/pmol CYP3A4 | reaction of substrate 1a to reaction product 1b catalyzed by enzyme (recombinant human CPY3A4; 2 µM substance 1a, CYP3A4 at 5 pmol/ml, Fig. 2): could be catalyzed | reaction of substrate 1a to reaction product 1b catalyzed by enzyme (CYP1B1): could be catalyzed | reaction of substrate 1a to reaction product 1b catalyzed by enzyme (CYP2D6): could be catalyzed | reaction velocity relative to BFC (CYP3A4 [2]): about 5 fold

O=c1cc(C(F)(F)F)c2ccc(OCc3ccccc3)cc2o1 [BFC, 7-benzyloxy-4-trifluoromethylcumarin]
activity of CYP3A4 for the reaction of BFC (CYP3A4 [1]; BFC at a concentration of 50 µM, according to US 6,207,404): about 1.5 pmol/min/pmol CYP3A4 | Km (CYP3A4 [1]): > 200 µM | Vmax (CYP3A4 [1]; at 40 µM BFC, according to US 6,207,404): 1.5 (at 40 µM BFC) pmol/min/pmol CYP3A4

Cc1ncc2n1-c1ccc(Cl)cc1C(c1ccccc1F)=NC2 [Midazolam]
Km (CYP3A4 [1]): 0.6 µM | Vmax (CYP3A4 [1]; [3]): 16.3 pmol/min/pmol CYP3A4
